Data set [1] relates to anesthetized thromboxane A2 challenged PAH-minipig. In words: Haemodynamics in the anesthetized thromboxane challenged minipig (PAH minipig), inhaled nebulized solution: lung selectivity and duration of action. The format is in vivo, Göttingen Minipigs. Conditions: for PAP % changes vs prevalue: mean. As for the experimental part:
Healthy Göttingen Minipigs® Ellegaard (Ellegaard, Denmark) of both sexes and having a weight of 2-6 kg were used. The animals were sedated by i.m. administration of about 25 mg/kg ketamine and about 10 mg/kg azaperone. Anaesthesia was initiated by i.v. administration of about 2 mg/kg ketamine and about 0.3 mg/kg midazolam. Maintenance of anaesthesia was by i.v. administration of about 7.5-30 mg/kg/h ketamine and about 1-4 mg/kg/h midazolam (rate of infusion 1-4 ml/kg/h) and about 150 μg/kg/h pancuronium bromide (for example Pancuronium-Actavis). After intubation, the animals were ventilated by the ventilator at a constant respiratory volume (10-12 ml/kg, 35 breaths/min; Avea®, Viasys Healthcare, USA, or Engström Carestation, GE Healthcare, Freiburg, Germany) such that an end-tidal CO2 concentration of about 5% was achieved. Ventilation was performed with room air, enriched with about 40% oxygen (normoxia). For the measurement of the haemodynamic parameters such as pulmonary arterial pressure (PAP), blood pressure (BP) and heart rate (HR), catheters were inserted into the carotid artery to measure the blood pressure, and a Swan-Ganz® catheter was introduced in a flow-directed manner via the jugular vein into the pulmonary artery. The haemodynamic signals were recorded and evaluated by means of pressure transducers (Combitransducer, B. Braun, Melsungen, Germany)/amplifiers and Ponemah® as data acquisition software.
After the instruments have been placed into the animals, continuous infusion of a thromboxane A2 analog was initiated to increase the pulmonary arterial pressure. About 0.3-0.75 μg/kg/min of 9,11-didesoxy-9α,11α-epoxymethanoprostaglandine F2α (U-44069; Sigma, cat. no. D0400, or Cayman Chemical Company, cat. no. 16440), dissolved in physiological saline, were infused to achieve an increase of the mean pulmonary arterial pressure to values of over 25 mmHg. 30 minutes after the start of the infusion, a plateau was reached, and the experiment was started.
The test substances were administered as i.v. infusion or by inhalation. For the preparation of the solution for inhalation, the following procedure was adopted: For an animal having a weight of 4 kg, to prepare the stock solution (300 μg/kg), 1.2 mg of the test compound were weighed out and dissolved in a total volume of 3 ml (1% DMSO, 99% 0.2% strength citric acid solution, 1 n aqueous sodium hydroxide solution to adjust the pH to 8). The solution was then diluted to the concentration employed using 0.2% strength citric acid which had been adjusted to pH 8 beforehand with aqueous sodium hydroxide solution. In each test, 3 ml of the solution of test compound per 4 kg animal were nebulized in the inhalation arm of the respiratory circuit using the Aeroneb® Pro nebulizer system. The mean nebulization time was about 7 min from the start of the nebulization.
With respect to a prediction of the duration of action for human studies comparative example 11 was compared in the PAH minipig model after inhaled application to Ventavis® (=Iloprost, 10 μg/kg nominal dose), which we used as a clinical reference. […] Therefore, the duration of action is more than 6 times longer compared to Ventavis in this preclinical animal model.

For data set [2], the system named is plasma proteins. The experiment in a line: Protein binding via Transil assay, human plasma. The format is in vitro ADME. To be noted: all tested species where comparative results are given. The source says:
The distribution of a test substance between Transil® (phosphatidylcholine lipid bilayers immobilized on silica beads) and plasma is a characteristic feature of any pharmaceutical compound and is dependent on its extent of binding to plasma proteins. By comparing the distribution between Transil® and buffer with the distribution between Transil® and plasma of any species of interest, the unbound fraction in the plasma of the respective animal species can be calculated in vitro. The respective plasma and buffer concentrations were determined via a radioactivity analysis. A detailed description of the method and its validation was published by Schuhmacher et al. (2).

In data set [3] the test system is patients with pulmonary hypertension. To be noted: clinical studies; cited from earlier work.
The nature of data set [4]: Particle size distribution by laser diffraction (D.4). The format is physicochemical. To be noted: after micronization, monohydrate II as starting material, 50 mm spiral jet mill; dry measurement 4 bar. As for the experimental part:
All measurements cited in the above tables were obtained by laser diffraction with dry dispersion using compressed air. Measuring in aqueous suspension with surfactants may lead to smaller particle sizes (×90 up to 1 μm smaller).
The particle size analysis data are usually reported as cumulative undersized distribution by volume. The symbol x is used to denote the particle size, which is defined as diameter of a volume equivalent sphere. Most common characteristic values are calculated from the particle size distribution by interpolation. Frequently used are the particle sizes at the undersize values of 10%, 50% and 90% of the volume distribution, denoted as ×10, ×50 and ×90. ×50 is also known as median particle size. The symbol dis widely used to designate the particle size, thus the symbol x may be replaced by the symbol d.

The subject of data set [5] is plasma proteins. The experiment in a line: Protein binding via ultrafiltration assay. The format is in vitro ADME. The source says:
For this assay, filter membranes of 30 kDa pore size were used to separate plasma and protein free ultrafiltrate. The driving force for filtration was applied by centrifugation. Prior to protein binding studies, the adsorption (recovery) of the test compound to the ultra-filtration device and the ability of the test compound to pass the filter membrane was checked by filtration of the test compound dissolved in buffer at four concentrations. Sufficient stability of the test compound and an almost complete recovery (≥90% of the actual amount of compound used for the experiment) was a prerequisite for the use of the ultrafiltration method. The amount of organic solvent added to the plasma may not exceed 2% of the total incubation volume. Blood samples were collected in heparinized tubes either pooled (all species except human and monkey) or individually (human and monkey) and were used within 24 h for incubation experiments in blood. Plasma was prepared by centrifugation of the heparinized blood samples. Plasma was stored at −15° C. until use. Plasma stability, Compound recovery, unspecific binding to the membrane and the test device as well as partitioning between blood cells and plasma were controlled. The substance-associated radioactivity was determined by liquid scintillation counting. With this analytical method, it is not possible to distinguish between unchanged substance and radioactive metabolites. For details of the radioanalytical methods and the work up of the samples see Goeller et al. (3). A description of the ultrafiltration method in general was published by Zhang et al. In 2012 (4).

As for `O=C(O)CCCCN(CCc1cc(F)ccc1OCc1ccc(-c2nc3cc(Cl)ccc3o2)cc1)C1CCCc2nc(C(=O)O)ccc21` (single isomer, unassigned) [compound 3, (5)-{(4-carboxybutyl)[2-(2-{[4-(5-chloro-1,3-benzoxazol-2-yl)benzyl]oxy}-5-fluorophenyl)ethyl]amino}-5,6,7,8-tetrahydroquinoline-2-carboxylic Acid, reference compound], the “effect on PAP completely resolved after” value in data set [1] (inhaled application) amounted to 120 min. Also, in data set [1] (nebulized solution), the “time of maximal effect on PAP after inhaled application” value was determined as 30 min.

Take `O=C(O)c1ccc(CCN(CCc2ccccc2OCc2ccc(-c3ccc(C(F)(F)F)cc3)cc2Cl)[C@H]2CCCc3nc(C(=O)O)ccc32)cc1` [Example 1, (5S)—{[2-(4-Carboxyphenyl)ethyl][2-(2-{[3-chloro-4′-(trifluoromethyl)biphenyl-4-yl]methoxy}phenyl)-ethyl]amino}-5,6,7,8-tetrahydroquinoline-2-carboxylic Acid Monohydrate II]: the “free fractions (comparison)” value with plasma proteins [2] is “lowest free fractions”.

As to `O=C(O)c1ccc(CCN(CCc2cc(F)ccc2OCc2ccc(-c3nc4cc(Cl)ccc4o3)cc2)C2CCCc3nc(C(=O)O)ccc32)cc1` (single isomer, unassigned) [compound 4, 5-{[2-(4-Carboxyphenyl)ethyl][2-(2-{[4-(5-chloro-1,3-benzoxazol-2-yl)benzyl]oxy}-5-fluorophenyl)-ethyl]amino}-5,6,7,8-tetrahydroquinoline-2-carboxylic Acid, reference compound], in data set [1] (minipig model, inhaled), the duration of action result is “sufficient duration of action”.

On to `CC#CCC(C)[C@H](O)/C=C/[C@@H]1[C@H]2C/C(=C/CCCC(=O)O)C[C@H]2C[C@H]1O` (stereo partly drawn) [Ventavis ®], for which the “PAP % changes vs prevalue” was 0% in data set [1] (inhaled, 10 μg/kg nominal dose, time 0 min); −30.3% in data set [1] (inhaled, 10 μg/kg nominal dose, time 10 min); −20.7% in data set [1] (inhaled, 10 μg/kg nominal dose, time 20 min); −6.9% in data set [1] (inhaled, 10 μg/kg nominal dose, time 30 min); 1.7% in data set [1] (inhaled, 10 μg/kg nominal dose, time 40 min); 4.9% in data set [1] (inhaled, 10 μg/kg nominal dose, time 50 min).

Take `CC#CCC(C)[C@H](O)/C=C/[C@@H]1[C@H]2C/C(=C/CCCC(=O)O)C[C@H]2C[C@H]1O` (stereo partly drawn) [Ventavis, reference compound]: in data set [1] (10 μg/kg nominal dose, inhaled), the “maximal duration of action” value is given as “about 40 min”. Besides, the “duration of action on haemodynamics (PVR)” value in data set [3] was “about 60 min”.

Turning to `CCOC(=O)c1ccc2c(n1)CCCC2NCCc1ccccc1OCc1ccc(-c2ccc(C(F)(F)F)cc2)cc1Cl` (single isomer, unassigned) [Example 8a, Ethyl 5-{[2-(2-{[3-chloro-4′-(trifluoromethyl)biphenyl-4-yl]methoxy}phenyl)ethyl]amino}-5,6,7,8-tetrahydroquinoline-2-carboxylate], in data set [4], the “PSD X10” value is reported as “X10: 0.2 μm,”, the “PSD X50” value was “X50: 1.7 μm,” and the “PSD X90” value was “X90: 4.2 μm”.

Regarding `COC(=O)N(C)c1c(N)nc(-c2nn(Cc3ccccc3F)c3ncccc23)nc1N` [Comparative example 2, Methyl-4,6-diamino-2-[1-(2-fluorobenzyl)-1H-pyrazolo[3,4-b]pyridine-3-yl]-5-pyrimidinyl(methyl)carbamate], the “Fraction unbound (%)” value in the data set with plasma proteins [5] (Dog Beagle plasma) is reported as 17.1%; in the data set on plasma proteins [5] (Human (male) plasma), 4.97%; with plasma proteins [5] (Rat Wistar plasma) it was 15.7%.

These data come from patent publication US20250281480A1, “PHARMACEUTICAL DRY POWDER INHALATION FORMULATION” (Bayer Aktiengesellschaft, priority 2021, published 2025).
